Measured values as given in ChEMBL document CHEMBL1201862, “PubChem BioAssay data set” (2004).
Calls of active or inactive are those of the source.

Tests used:
[1] = biological target: T1, Probable nicotinate-nucleotide adenylyltransferase (Staphylococcus aureus (strain N315), UniProt P65502); assay type: functional, Staphylococcus aureus subsp. aureus N315;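 on IC50 Mean: confirmatory dose-response retesting of NadD inhibitor hits first found in an ultra-high-throughput screen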
[2] = biological target: T1, Probable nicotinate-nucleotide adenylyltransferase; assay type: functional, Staphylococcus aureus subsp. aureus N315; conditions: read-out: IC50_Mean
[3] = biological target: T2, Orexin/Hypocretin receptor type 1 (Homo sapiens, UniProt O43613); assay: Homogeneous Time Resolved Fluorescence (HTRF)-based cell-based high throughput dose response assay for antagonists of the orexin 1 receptor (OX1R; HCRTR1). [Related pubchem assays (depositor defined):AID434989, AID435008, AID463079, AID485270, AID492963, AID492964, AID492965, AID493232, AID504717, AID504718]; assay type: functional
T2 sequence (O43613 whole entry): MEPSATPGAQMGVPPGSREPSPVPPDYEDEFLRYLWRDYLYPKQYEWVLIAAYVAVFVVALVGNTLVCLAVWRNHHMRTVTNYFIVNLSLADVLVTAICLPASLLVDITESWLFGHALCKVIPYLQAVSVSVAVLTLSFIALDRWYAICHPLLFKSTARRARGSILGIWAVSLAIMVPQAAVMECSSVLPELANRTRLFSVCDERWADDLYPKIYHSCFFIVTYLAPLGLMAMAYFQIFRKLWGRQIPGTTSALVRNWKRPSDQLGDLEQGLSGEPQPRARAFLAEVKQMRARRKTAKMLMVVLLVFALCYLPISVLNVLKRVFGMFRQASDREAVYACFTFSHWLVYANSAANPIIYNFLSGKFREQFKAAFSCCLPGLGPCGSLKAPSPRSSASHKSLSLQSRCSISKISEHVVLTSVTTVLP

Orexin receptor type 2 [4] = biological target: T3, Orexin receptor type 2 (Homo sapiens, UniProt O43614); assay: Counterscreen assay for antagonists of the orexin 1 receptor (OX1R; HCRTR1): Fluorescence-based cell-based dose response assay for antagonists of the orexin 2 receptor (OX2R; HCRTR2), run by assay provider.; assay type: functional
T3 sequence (O43614 whole entry): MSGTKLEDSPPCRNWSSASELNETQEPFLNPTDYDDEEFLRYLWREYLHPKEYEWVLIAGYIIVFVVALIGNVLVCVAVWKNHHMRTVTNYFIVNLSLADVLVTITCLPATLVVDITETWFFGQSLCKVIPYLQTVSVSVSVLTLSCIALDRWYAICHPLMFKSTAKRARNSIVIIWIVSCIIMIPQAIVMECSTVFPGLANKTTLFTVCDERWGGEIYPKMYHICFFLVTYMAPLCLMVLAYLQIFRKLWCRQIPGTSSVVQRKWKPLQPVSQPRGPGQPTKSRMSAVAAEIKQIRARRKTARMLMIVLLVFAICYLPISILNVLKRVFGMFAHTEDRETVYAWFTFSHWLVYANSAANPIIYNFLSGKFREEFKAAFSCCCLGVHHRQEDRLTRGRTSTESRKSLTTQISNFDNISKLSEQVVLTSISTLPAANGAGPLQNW

CHO-K1 = assay: Counterscreen for antagonists of the orexin 1 receptor (OX1R; HCRTR1): Homogeneous time resolved fluorescence (HTRF)-based cell-based dose response assay to identify antagonists of the parental CHO-K1 cell line. [Related pubchem assays (depositor defined):AID434989, AID435008, AID463079, AID485270, AID492963, AID492964, AID492965, AID493232, AID504699, AID504701]; assay type: functional; conditions: Cricetulus griseus;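 further: potency for inhibition of ATP-stimulated IP1 production as antagonists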
Orexin receptor type 2 [5] = biological target: T3, Orexin receptor type 2; assay: Counterscreen assay for antagonists of the orexin 1 receptor (OX1R; HCRTR1): Homogeneous Time Resolved Fluorescence (HTRF)-based cell-based dose response assay for antagonists of the orexin 2 receptor (OX2R; HCRTR2), run by assay provider.; assay type: functional
[6] = Counterscreen for antagonists of the orexin 1 receptor (OX1R; HCRTR1): Fluorescence-based cell-based high throughput dose response assay to identify antagonists of the parental CHO cell line. [Related pubchem assays (depositor defined):AID434989, AID435008, AID463079, AID485270, AID492963, AID492964, AID492965, AID493232, AID504699, AID504701]; assay type: functional
[7] = biological target: T2, Orexin/Hypocretin receptor type 1; assay: Fluorescence-based cell-based high throughput dose response assay for antagonists of the orexin 1 receptor (OX1R; HCRTR1). [Related pubchem assays (depositor defined):AID434989, AID435008, AID463079, AID485270, AID492963, AID492964, AID492965, AID493232, AID504717, AID504718]; assay type: functional
[8] = biological target: Adenosylmethionine-8-amino-7-oxononanoate aminotransferase (Mycobacterium tuberculosis, UniProt P9WQ81); assay: Mycobacterium tuberculosis BioA enzyme inhibitor Measured in Biochemical System Using Plate Reader - 2163-02_Inhibitor_Dose_CherryPick_Activity.; assay type: functional, Mycobacterium tuberculosis UT205
[9] = biological target: T4, Aryl hydrocarbon receptor (Homo sapiens, UniProt P35869); conditions: Potency;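 further: confirmatory quantitative high-throughput screen measuring activation of the AhR signaling pathway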
T4 sequence (P35869 whole entry): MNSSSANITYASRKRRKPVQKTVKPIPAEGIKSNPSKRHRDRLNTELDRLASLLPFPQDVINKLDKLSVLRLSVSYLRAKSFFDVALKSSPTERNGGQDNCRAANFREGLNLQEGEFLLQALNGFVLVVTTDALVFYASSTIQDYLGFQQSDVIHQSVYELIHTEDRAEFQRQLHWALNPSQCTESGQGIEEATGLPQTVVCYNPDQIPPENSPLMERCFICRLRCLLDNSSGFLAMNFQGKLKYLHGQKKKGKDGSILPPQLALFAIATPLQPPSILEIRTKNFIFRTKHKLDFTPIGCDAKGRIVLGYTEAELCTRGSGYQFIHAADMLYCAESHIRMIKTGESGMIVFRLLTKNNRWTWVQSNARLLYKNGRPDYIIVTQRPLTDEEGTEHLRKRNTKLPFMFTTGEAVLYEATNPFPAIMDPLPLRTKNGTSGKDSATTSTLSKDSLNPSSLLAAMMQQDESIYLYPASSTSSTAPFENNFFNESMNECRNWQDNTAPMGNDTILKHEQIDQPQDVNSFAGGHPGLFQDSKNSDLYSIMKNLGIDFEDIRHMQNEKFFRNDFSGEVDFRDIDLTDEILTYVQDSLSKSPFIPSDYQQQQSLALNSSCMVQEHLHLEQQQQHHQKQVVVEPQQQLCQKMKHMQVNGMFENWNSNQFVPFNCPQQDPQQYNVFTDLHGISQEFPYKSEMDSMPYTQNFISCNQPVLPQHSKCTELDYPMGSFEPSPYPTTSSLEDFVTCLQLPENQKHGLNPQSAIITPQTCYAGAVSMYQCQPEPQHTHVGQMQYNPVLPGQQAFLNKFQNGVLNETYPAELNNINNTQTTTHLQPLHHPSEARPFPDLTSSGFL

Melanocortin receptor 4 = Melanocortin receptor 4 (Homo sapiens, UniProt P32245); assay type: functional, cell-based;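 further: Cell-based assay with luminescence read-out, confirmatory dose-response testing for agonist activity of biased ligands at MC4R; human U2OS cells with tagged receptor and beta-arrestin; potency of agonists that increase receptor coupling to beta-arrestin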
[10] = biological target: Casein kinase I isoform gamma-1 (Homo sapiens, UniProt Q9HCP0); assay type: functional;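 further: measured as the CSNK1G1 member of a kinome profiling panel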
[11] = biological target: Dual specificity protein kinase CLK4 (Homo sapiens, UniProt Q9HAZ1); assay type: functional
[12] = biological target: Serine/threonine-protein kinase pim-1 (Homo sapiens, UniProt P11309); assay type: functional
[13] = biological target: Potassium voltage-gated channel subfamily KQT member 2 (Rattus norvegicus, UniProt O88943); assay: blockers of KCNQ2 channel current – cell-based, automated electrophysiology, set II, rat KCNQ2, dose response (AID 588637); assay type: functional
[14] = biological target: Cyclin-dependent kinase 9 (Homo sapiens, UniProt P50750); assay type: functional;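 further: value from the CDK9 entry of a kinome-spanning kinase panel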
[15] = biological target: Cyclin-dependent kinase 7 (Homo sapiens, UniProt P50613); assay type: functional;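 further: value comes from a kinome-wide kinase profiling panel in which CDK7 is one member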
[16] = biological target: Cell division cycle 7-related protein kinase (Homo sapiens, UniProt O00311); assay type: functional;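 further: value obtained from a kinome-wide kinase panel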
[17] = reduction of Shn3 3'UTR-driven luciferase in osteoblasts – cell-based, Clone20 osteoblasts, firefly luciferase, cherry-picked, dose response (AID 624132); assay type: functional;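 further: firefly luciferase luminescence from reporter carrying the Shn3 3'UTR in osteoblasts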
[18] = non-specific 3'UTR reporter inhibition in Clone20-Shn3RL – cell-based, Renilla luciferase, cherry-picked, counter-screen for Shn3 inhibitor project, dose response (AID 624133); assay type: functional
[19] = loss of viability in HepG2 cells – cell-based, CellTiter-Glo, cherry-picked, cytotoxicity control for Shn3 inhibitor project, dose response (AID 624134); assay type: functional
Protein Wnt-3a = Protein Wnt-3a (Mus musculus, UniProt P27467); assay: antagonism of Wnt3a pathway luciferase reporter – Wnt-LIGHT cells, luminescence, selectivity assay for Gli-SUFU antagonist project, dose response (AID 651570); assay type: functional; conditions: read-out: IC50_Mean;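 further: Wnt-LIGHT reporter cells stimulated with conditioned medium from Wnt3a-producing cells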
[20] = biological target: Photoreceptor-specific nuclear receptor (Homo sapiens, UniProt Q9Y5X4); assay type: functional, cell-based;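 further: CHO-S cells with Gal4-NCOR and VP16-NR2E3 two-hybrid luciferase reporter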
[21] = bead-based luminescence quenchers, dual-tagged ARNT – biochemical, AlphaScreen, cherry-pick, artefact control for ARNT-TACC3 interaction inhibitor project, dose response (AID 651705); assay type: functional;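 further: AlphaScreen bead proximity signal that flags compounds interfering with the detection technology; potency reflects signal decrease which marks the compound as an assay artifact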
[22] = biological target: Rho-associated protein kinase 1 (Homo sapiens, UniProt Q13464); assay type: functional;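 further: measured within a broad kinome-wide panel profiling many kinases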
[23] = biological target: Ras and Rab interactor 1/Tyrosine-protein kinase ABL1 (Homo sapiens, UniProt P00519+Q13671); assay type: functional;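 further: biochemical TR-FRET dose-response test measuring inhibition of binding between Rin1 and Abl proteins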
Interleukin-8 [24] = biological target: T5, Interleukin-8 (Homo sapiens, UniProt P10145); assay: Dose Response confirmation of uHTS small molecule hits for cystic fibrosis induced NFkb Inhibitors in a PAF-induced IL8 counterscreen.; assay type: functional; conditions: read-out: IC50_Mean
Interleukin-8 [25] = biological target: T5, Interleukin-8; assay: Dose Response confirmation of uHTS small molecule hits for cystic fibrosis induced NFkb Inhibitors in a TNFa-induced IL8 counterscreen.; assay type: functional; conditions: read-out: IC50_Mean
Hexokinase = Hexokinase (Trypanosoma brucei, UniProt Q38C41); assay: Confirmation assay for inhibitors of Trypanosoma brucei hexokinase 1-Analogue-first series. [Related pubchem assays (depositor defined):AID1430, AID1632, AID2516, AID2560, AID2579, AID2600, AID449725, AID492951]; assay type: functional
CHO = CHO cell viability loss, potency – luminescence, cytotoxicity control for TLR9-MyD88 binding inhibitor project, dose response (AID 588339); assay type: functional, cell-based, hamster; conditions: Cricetulus griseus;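 further: CHO cells stably coexpressing TLR9 and MyD88 fusions from primary screen; compound exposure lasted 48 hours before viability readout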
[26] = biological target: Glucose-6-phosphate 1-dehydrogenase (Homo sapiens, UniProt P11413); assay: inhibition of Homo sapiens G6PD, dose series – biochemical, fluorescence, selectivity assay for P. falciparum G6PD inhibitor project, dose response (AID 504792); assay type: functional
[27] = biological target: Mitochondrial peptide methionine sulfoxide reductase (Bos taurus, UniProt P54149); assay: Absorbance-based biochemical high throughput dose response assay for activators of Methionine sulfoxide reductase A (MsrA).; assay type: functional
Beta Lactamase = Beta Lactamase (Pseudomonas aeruginosa, UniProt Q932Y6); assay: BLA reporter interference, concentration series – BLA reporter cells, FRET fluorescence, artefact control for TLR9-MyD88 binding inhibitor project, dose response (AID 588341); assay type: cell-based;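 further: cell based assay in CHO-K1 cells stably expressing beta-lactamase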
Beta Lactamase, sequence (Q932Y6 whole entry): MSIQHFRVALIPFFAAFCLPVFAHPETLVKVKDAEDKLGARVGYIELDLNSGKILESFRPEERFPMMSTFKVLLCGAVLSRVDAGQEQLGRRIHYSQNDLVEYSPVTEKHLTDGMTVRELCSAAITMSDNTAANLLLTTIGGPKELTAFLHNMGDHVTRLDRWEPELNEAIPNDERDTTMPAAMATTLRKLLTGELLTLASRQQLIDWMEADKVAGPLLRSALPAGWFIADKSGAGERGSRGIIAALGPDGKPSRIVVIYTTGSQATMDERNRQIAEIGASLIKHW

Dual specificity protein kinase CLK4, sequence (Q9HAZ1 whole entry): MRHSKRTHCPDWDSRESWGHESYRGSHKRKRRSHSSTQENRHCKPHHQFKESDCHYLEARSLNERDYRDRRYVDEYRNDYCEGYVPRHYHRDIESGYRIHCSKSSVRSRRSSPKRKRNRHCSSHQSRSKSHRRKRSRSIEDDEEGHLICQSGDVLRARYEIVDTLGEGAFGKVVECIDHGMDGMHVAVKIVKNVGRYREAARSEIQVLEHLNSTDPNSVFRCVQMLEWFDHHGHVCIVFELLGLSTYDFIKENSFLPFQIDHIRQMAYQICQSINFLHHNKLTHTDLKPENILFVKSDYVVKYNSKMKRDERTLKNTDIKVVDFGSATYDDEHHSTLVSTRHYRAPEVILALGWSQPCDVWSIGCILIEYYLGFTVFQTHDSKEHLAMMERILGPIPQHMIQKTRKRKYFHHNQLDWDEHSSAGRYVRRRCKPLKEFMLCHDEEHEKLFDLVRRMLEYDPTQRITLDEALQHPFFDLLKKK
T1 sequence (P65502 whole entry): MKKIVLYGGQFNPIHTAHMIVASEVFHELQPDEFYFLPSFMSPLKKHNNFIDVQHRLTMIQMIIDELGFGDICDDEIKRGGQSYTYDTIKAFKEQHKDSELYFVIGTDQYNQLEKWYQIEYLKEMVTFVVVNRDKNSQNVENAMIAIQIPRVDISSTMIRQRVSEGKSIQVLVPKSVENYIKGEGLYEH
T5 sequence (P10145 whole entry): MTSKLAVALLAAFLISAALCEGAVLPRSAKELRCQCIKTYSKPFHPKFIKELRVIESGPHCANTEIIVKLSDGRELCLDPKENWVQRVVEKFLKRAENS
Cyclin-dependent kinase 7, sequence (P50613 whole entry): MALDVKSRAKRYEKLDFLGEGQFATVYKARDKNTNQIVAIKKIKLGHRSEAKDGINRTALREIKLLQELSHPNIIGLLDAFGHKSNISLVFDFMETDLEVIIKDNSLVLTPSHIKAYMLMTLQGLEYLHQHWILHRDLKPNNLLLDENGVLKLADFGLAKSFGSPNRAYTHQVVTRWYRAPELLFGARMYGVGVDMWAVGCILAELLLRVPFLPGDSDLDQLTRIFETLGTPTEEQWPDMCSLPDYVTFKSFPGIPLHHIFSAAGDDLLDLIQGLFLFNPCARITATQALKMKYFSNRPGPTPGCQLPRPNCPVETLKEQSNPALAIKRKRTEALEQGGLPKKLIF
Adenosylmethionine-8-amino-7-oxononanoate aminotransferase, sequence (P9WQ81 whole entry): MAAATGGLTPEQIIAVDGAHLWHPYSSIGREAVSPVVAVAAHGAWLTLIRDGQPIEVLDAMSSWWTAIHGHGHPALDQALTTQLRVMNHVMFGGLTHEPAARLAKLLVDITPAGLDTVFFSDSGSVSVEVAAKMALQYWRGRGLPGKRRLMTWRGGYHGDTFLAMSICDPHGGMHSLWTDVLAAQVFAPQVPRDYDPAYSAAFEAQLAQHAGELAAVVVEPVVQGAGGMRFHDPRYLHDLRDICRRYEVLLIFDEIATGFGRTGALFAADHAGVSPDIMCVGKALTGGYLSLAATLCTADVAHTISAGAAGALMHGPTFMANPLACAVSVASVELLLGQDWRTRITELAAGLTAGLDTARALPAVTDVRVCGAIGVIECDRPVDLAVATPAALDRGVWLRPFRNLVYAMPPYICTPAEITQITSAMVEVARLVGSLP
Casein kinase I isoform gamma-1, sequence (Q9HCP0 whole entry, canonical isoform): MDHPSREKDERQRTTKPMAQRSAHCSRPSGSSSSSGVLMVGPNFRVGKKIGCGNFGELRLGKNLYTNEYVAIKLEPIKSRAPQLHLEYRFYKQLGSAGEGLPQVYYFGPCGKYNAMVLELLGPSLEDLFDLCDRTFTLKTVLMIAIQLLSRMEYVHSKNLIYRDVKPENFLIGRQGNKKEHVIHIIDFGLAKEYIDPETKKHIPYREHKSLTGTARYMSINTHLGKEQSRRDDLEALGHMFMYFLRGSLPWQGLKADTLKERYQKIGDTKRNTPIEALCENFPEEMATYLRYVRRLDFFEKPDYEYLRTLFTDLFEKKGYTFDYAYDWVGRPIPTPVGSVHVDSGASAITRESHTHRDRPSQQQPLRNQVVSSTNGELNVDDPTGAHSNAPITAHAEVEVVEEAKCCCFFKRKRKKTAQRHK
Protein Wnt-3a, sequence (P27467 whole entry, the tested form may be a part): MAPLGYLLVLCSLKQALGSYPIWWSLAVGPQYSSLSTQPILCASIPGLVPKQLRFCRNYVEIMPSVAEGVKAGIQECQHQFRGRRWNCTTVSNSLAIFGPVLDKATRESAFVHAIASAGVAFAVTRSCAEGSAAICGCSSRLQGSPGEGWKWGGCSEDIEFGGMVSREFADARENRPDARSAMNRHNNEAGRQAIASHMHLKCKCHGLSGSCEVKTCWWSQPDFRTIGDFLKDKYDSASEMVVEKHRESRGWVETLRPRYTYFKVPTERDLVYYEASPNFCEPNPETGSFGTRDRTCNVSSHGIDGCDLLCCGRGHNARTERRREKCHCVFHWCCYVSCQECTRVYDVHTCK
Hexokinase, sequence (Q38C41 whole entry, the tested form may be a part): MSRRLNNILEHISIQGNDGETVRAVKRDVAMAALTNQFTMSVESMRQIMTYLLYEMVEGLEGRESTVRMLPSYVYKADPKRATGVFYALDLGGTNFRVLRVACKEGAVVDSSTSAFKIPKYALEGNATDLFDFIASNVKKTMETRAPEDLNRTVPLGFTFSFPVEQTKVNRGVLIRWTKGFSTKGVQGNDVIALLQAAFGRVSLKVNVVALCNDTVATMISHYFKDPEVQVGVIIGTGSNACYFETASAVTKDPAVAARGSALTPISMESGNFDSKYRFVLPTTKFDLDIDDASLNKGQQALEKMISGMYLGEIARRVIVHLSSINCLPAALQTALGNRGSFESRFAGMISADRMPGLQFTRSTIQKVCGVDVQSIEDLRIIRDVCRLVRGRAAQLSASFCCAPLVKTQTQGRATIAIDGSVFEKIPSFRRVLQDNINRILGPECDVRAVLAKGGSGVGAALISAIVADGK
Glucose-6-phosphate 1-dehydrogenase, sequence (P11413 whole entry): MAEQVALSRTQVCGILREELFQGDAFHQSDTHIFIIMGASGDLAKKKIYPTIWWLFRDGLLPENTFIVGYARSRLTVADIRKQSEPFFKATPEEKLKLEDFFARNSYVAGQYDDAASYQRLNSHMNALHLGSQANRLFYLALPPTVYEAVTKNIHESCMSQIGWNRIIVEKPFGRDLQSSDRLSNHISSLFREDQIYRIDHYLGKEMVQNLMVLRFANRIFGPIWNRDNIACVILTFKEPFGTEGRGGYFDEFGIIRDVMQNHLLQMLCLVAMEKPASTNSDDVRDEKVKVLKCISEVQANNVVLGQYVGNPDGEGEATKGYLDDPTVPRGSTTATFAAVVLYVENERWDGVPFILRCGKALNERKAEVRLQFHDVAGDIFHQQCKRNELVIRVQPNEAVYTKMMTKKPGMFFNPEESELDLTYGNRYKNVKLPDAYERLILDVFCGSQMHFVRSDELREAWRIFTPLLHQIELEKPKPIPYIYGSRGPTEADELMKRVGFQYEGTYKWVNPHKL
Potassium voltage-gated channel subfamily KQT member 2, sequence (O88943 whole entry): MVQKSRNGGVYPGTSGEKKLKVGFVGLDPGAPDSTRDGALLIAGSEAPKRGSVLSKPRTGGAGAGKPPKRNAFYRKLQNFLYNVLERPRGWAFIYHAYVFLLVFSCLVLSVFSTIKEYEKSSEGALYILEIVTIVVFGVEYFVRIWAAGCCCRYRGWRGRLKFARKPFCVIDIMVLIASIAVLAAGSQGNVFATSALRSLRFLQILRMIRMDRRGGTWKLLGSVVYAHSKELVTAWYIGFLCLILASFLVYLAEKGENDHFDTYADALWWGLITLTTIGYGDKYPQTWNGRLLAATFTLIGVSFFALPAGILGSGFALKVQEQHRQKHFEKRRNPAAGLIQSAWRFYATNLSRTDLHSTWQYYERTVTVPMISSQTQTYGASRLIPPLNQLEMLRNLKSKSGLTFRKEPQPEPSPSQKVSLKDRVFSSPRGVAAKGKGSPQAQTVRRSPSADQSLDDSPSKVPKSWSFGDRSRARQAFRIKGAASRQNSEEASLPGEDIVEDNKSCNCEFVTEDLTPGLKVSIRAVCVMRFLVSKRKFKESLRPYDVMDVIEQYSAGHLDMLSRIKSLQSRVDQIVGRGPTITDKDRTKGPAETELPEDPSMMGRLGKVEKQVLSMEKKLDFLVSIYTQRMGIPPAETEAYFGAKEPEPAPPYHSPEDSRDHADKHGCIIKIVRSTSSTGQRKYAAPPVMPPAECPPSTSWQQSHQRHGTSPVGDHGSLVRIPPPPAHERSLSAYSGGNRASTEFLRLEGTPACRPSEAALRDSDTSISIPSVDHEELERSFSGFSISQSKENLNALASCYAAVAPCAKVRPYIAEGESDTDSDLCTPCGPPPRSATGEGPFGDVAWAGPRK
Melanocortin receptor 4, sequence (P32245 whole entry, canonical isoform): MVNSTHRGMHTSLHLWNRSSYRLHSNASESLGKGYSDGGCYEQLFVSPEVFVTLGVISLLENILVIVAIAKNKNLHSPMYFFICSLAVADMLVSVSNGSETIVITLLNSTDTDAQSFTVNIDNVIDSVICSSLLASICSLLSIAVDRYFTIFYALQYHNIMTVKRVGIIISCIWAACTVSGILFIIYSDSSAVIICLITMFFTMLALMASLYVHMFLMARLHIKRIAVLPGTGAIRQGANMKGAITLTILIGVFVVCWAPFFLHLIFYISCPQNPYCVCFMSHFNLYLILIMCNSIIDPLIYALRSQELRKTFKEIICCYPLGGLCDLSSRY

SMILES: O=C1CC(=C2c3ccccc3-c3ccccc32)C(=O)N1CCN1CCN(c2cccc(Cl)c2)CC1
- IC50 [1]: 13.5 µM (active)
- IC50 [2]: 26.6 µM (active)

SMILES: CCc1cc(C(=O)OCC(=O)N2CCC(c3ccccc3)=N2)sc1C
- IC50 [3]: 2.45 µM (active)
- IC50 (Orexin receptor type 2 [4]): > 88.8 µM (inactive)
- IC50 (CHO-K1): > 66.2 µM (inactive)
- IC50 (Orexin receptor type 2 [5]): > 50 µM (inactive)
- IC50 [6]: > 49.8 µM (inactive)
- IC50 [7]: 3.47 µM (active)

SMILES: Cc1c(C(=O)OC(C)C(=O)N(C)Cc2ccccc2)oc2ccccc12 (stereo not given)
- IC50 [3]: 0.717 µM (active)
- IC50 (Orexin receptor type 2 [4]): 9.6 µM (active)
- IC50 (CHO-K1): > 66.2 µM (inactive)
- IC50 (Orexin receptor type 2 [5]): 5.52 µM (active)
- IC50 [6]: 43.3 µM (inactive)
- IC50 [7]: 6.49 µM (active)

SMILES: C=CCn1c(SCc2c(C(=O)OC)sc(N)c2C(=O)OC)nnc1-c1ccc(Br)cc1
- AC50 [8]: 0.233 µM (active)

SMILES: Nc1ccc(/N=N/c2ccccc2)cc1
- AC50 [9]: 50.1 µM (inconclusive)

SMILES: COc1ccccc1-c1cc(NC(C)=O)c2ncc(-c3ccccc3)n2c1
- EC50 (Melanocortin receptor 4): > 89.2 µM (inactive)

SMILES: O=C1CC(c2ccc(F)cc2)Cc2[nH]c3cc(Cl)ccc3c(=O)c21 (stereo not given)
- Ki [10]: 3.98 µM (active)
- Ki [11]: 6.31 µM (active)
- Ki [12]: 3.98 µM (active)

SMILES: O=C(CN1CCCc2ccccc21)NCCc1ccc(Cl)cc1
- IC50 [13]: 8.54 µM (active)

SMILES: COCCN(CCOC)c1nc(OC)cc(-c2c[nH]c3ncccc23)n1
- Ki [14]: > 2.51 µM (inactive)
- Ki [15]: > 2.51 µM (inactive)
- Ki [16]: 0.1 µM (active)

SMILES: Cc1ccc(S(=O)(=O)N2CCN(C(=O)C3CCN(c4ncnc5sc(C)c(C)c45)CC3)CC2)c(C)c1
- AC50 [17]: 2.12 µM (active)
- AC50 [18]: 1.43 µM (active)
- AC50 [19]: 46 µM (active)
- IC50 (Protein Wnt-3a): 14.7 µM (active)

SMILES: Cc1ccc(CN2CC(C(=O)Nc3ncc(C)s3)CC2=O)cc1 (stereo not given)
- IC50 [20]: 1.26 µM (active)

SMILES: Nn1c(SCC(=O)Nc2ccc3c(c2)OCCO3)nnc1-c1ccccn1
- AC50 [21]: 107 µM (active)

SMILES: Nc1nonc1-n1cc(CO)nn1
- Ki [22]: 39.8 µM (active)
- Ki [11]: 63.1 µM (active)

SMILES: CCSCCO/C(O)=C1\C(C)=NC2=C(C(=O)CCC2)C1c1coc2ccccc2c1=O (stereo not given)
- IC50 [23]: > 73.5 µM (inactive)

SMILES: COC(=O)N1C(=O)[C@@](c2ccc(OC)cc2)(C(C)C)N1C(=O)OC
- IC50 (Interleukin-8 [24]): 2.4 µM (active)
- IC50 (Interleukin-8 [25]): 3.22 µM (active)

SMILES: O=c1c2cc([N+](=O)[O-])ccc2sn1-c1ccccc1
- IC50 (Hexokinase): > 25 µM (inactive)
- IC50 (CHO): 12.1 µM (inactive)
- IC50 [26]: 11.3 µM (active)
- EC50 [27]: > 104 µM (inactive)
- IC50 (Beta Lactamase): > 49.7 µM (inactive)
